{
  "source": "patent US20060069132A1",
  "about": "“Azolecarboxamide herbicides” (priority 2004, published 2006)",
  "key": {"Russian thistle": {"system": "Russian thistle", "test": "Test E pre-/postemergence herbicide test", "format": "in vivo, Salsola kali", "settings": "Preemergence", "procedure,_shortened": "(§1)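 Each species was compared with untreated controls 12 to 14 days after greenhouse application and assigned a visual score from 0 (no effect) to 100 (complete control). Applications were preemergence to seeded soil or postemergence to 1- to 4-leaf plants, using a solvent-plus-surfactant formulation.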"}, "Canada horseweed": {"system": "Canada horseweed", "test": "Test E pre-/postemergence herbicide test", "format": "in vivo, Erigeron Canadensis", "settings": "Preemergence", "procedure,_shortened": "as §1"}, "wild oat": {"system": "wild oat", "test": "Test C postemergence herbicide test", "format": "in vivo, Avenafatua", "procedure,_shortened": "(§2)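 Postemergence sprays were applied to plants 2 to 18 cm tall (1- to 4-leaf stage); in the flooded paddy test, barnyardgrass was grown to the 2-leaf stage. After 12 to 14 days in a greenhouse, injury was visually rated against untreated controls on a 0–100 scale (100 = complete control).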"}, "large crabgrass": {"system": "large crabgrass", "test": "Test E pre-/postemergence herbicide test", "format": "in vivo, Digitaria sanguinalis", "settings": "Preemergence", "procedure,_shortened": "as §1"}, "blackgrass": {"system": "blackgrass", "test": "Test C postemergence herbicide test", "format": "in vivo, Alopecurus myosuroides", "procedure,_shortened": "as §2"}, "winter barley": {"system": "winter barley", "test": "Test C postemergence herbicide test", "format": "in vivo, Hordeum vulgare", "procedure,_shortened": "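Greenhouse test with a 12–14 day hold after application and visual comparison with controls. Emerged plants were 1- to 4-leaf stage (2–18 cm) when sprayed postemergence, and the paddy barnyardgrass was at 2 leaves under flooded conditions. 100 = complete control.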"}, "barnyardgrass": {"system": "barnyardgrass", "test": "Test E pre-/postemergence herbicide test", "format": "in vivo, Echinochloa crus-galli", "settings": "Preemergence", "procedure,_shortened": "as §1"}, "Italian ryegrass": {"system": "Italian ryegrass", "test": "Test E pre-/postemergence herbicide test", "format": "in vivo, Lolium multiflorum", "settings": "Preemergence", "procedure,_shortened": "as §1"}, "quackgrass": {"system": "quackgrass", "test": "Test E pre-/postemergence herbicide test", "format": "in vivo, Elytrigia repens", "settings": "Preemergence", "procedure,_shortened": "as §1"}, "annual bluegrass": {"system": "annual bluegrass", "test": "Test E pre-/postemergence herbicide test", "format": "in vivo, Poa annua", "settings": "Preemergence", "procedure,_shortened": "as §1"}, "canarygrass": {"system": "canarygrass", "test": "Test C postemergence herbicide test", "format": "in vivo, Phalaris minor", "procedure,_shortened": "as §2"}, "johnsongrass": {"system": "johnsongrass", "test": "Test E pre-/postemergence herbicide test", "format": "in vivo, Sorghum halepense", "settings": "Preemergence", "procedure,_shortened": "as §1"}, "bipinnate beggarticks": {"system": "bipinnate beggarticks", "test": "Test E pre-/postemergence herbicide test", "format": "in vivo, Bidens bipinnata", "settings": "Preemergence", "procedure,_shortened": "as §1"}, "windgrass": {"system": "windgrass", "test": "Test C postemergence herbicide test", "format": "in vivo, Apera spica-venti", "procedure,_shortened": "as §2"}, "[1]": {"settings": "500 g ai/ha, scale 0 (no effect) to 100 (complete control)"}, "[2]": {"settings": "250 g ai/ha, scale 0 (no effect) to 100 (complete control)"}, "[3]": {"settings": "Postemergence, 500 g ai/ha, scale 0 to 100, 0 no effect, 100 complete control"}, "[4]": {"settings": "postemergence, 125 g ai/ha, scale 0 to 100"}, "[5]": {"settings": "postemergence, 62 g ai/ha, scale 0 to 100"}, "[6]": {"settings": "Postemergence, 500 g ai/ha, scale 0 to 100"}, "[7]": {"settings": "Postemergence, 250 g ai/ha, scale 0 to 100, 0 no effect, 100 complete control"}},
  "data": [
    {"smiles": "CCNC(=O)c1cccc(NC(=O)c2nn(C(C)(C)C)nc2C)c1", "note": "[Compound 392]", "values": [
      {"measurement": "Plant response rating, Thistle", "setting": "Russian thistle; 125 g ai/ha, scale 0 to 100", "value": 10},
      {"measurement": "Plant response rating, Thistle", "setting": "Russian thistle; [1]", "value": 100},
      {"measurement": "Plant response rating, Horseweed", "setting": "Canada horseweed; 62 g ai/ha, scale 0 to 100", "value": 60},
      {"measurement": "Plant response rating, Horseweed", "setting": "Canada horseweed; 125 g ai/ha, scale 0 to 100", "value": 60},
      {"measurement": "Plant response rating, Horseweed", "setting": "Canada horseweed; [2]", "value": 75},
      {"measurement": "Plant response rating, Horseweed", "setting": "Canada horseweed; [1]", "value": 85},
      {"measurement": "Plant response rating, Oat, Wild", "setting": "wild oat; [3]", "value": 60},
      {"measurement": "Plant response rating, Oat, Wild", "setting": "wild oat; [4]", "value": 40},
      {"measurement": "Plant response rating, Oat, Wild", "setting": "wild oat; [5]", "value": 30},
      {"measurement": "Plant response rating, Crabgrass, Large", "setting": "large crabgrass; 62 g ai/ha, scale 0 to 100", "value": 75},
      {"measurement": "Plant response rating, Crabgrass, Large", "setting": "large crabgrass; 125 g ai/ha, scale 0 to 100", "value": 95},
      {"measurement": "Plant response rating, Crabgrass, Large", "setting": "large crabgrass; [2]", "value": 95},
      {"measurement": "Plant response rating, Crabgrass, Large", "setting": "large crabgrass; [1]", "value": 95},
      {"measurement": "Blackgrass plant response rating", "setting": "blackgrass; [6]", "value": 65},
      {"measurement": "Plant response rating, Blackgrass", "setting": "blackgrass; [7]", "value": 45},
      {"measurement": "Plant response rating, Blackgrass", "setting": "blackgrass; [4]", "value": 45},
      {"measurement": "Plant response rating, Blackgrass", "setting": "blackgrass; [5]", "value": 35},
      {"measurement": "Barley, Winter plant response rating", "setting": "winter barley; [6]", "value": 35},
      {"measurement": "Plant response rating, Barley, Winter", "setting": "winter barley; Postemergence, 125 g ai/ha, scale 0 to 100, 0 no effect, 100 complete control", "value": 35},
      {"measurement": "Plant response rating, Barley, Winter", "setting": "winter barley; [7]", "value": 35},
      {"measurement": "Plant response rating, Barley, Winter", "setting": "winter barley; postemergence, 62 g ai/ha, scale 0 to 100 (0 no effect, 100 complete control)", "value": 35},
      {"measurement": "Plant response rating, Barnyardgrass", "setting": "barnyardgrass; 62 g ai/ha, scale 0 to 100", "value": 75},
      {"measurement": "Plant response rating, Barnyardgrass", "setting": "barnyardgrass; 125 g ai/ha, scale 0 to 100", "value": 75},
      {"measurement": "Plant response rating, Barnyardgrass", "setting": "barnyardgrass; [2]", "value": 90},
      {"measurement": "Plant response rating, Barnyardgrass", "setting": "barnyardgrass; [1]", "value": 100},
      {"measurement": "Plant response rating, Ryegrass, Italian", "setting": "Italian ryegrass; 62 g ai/ha, scale 0 to 100", "value": 10},
      {"measurement": "Plant response rating, Ryegrass, Italian", "setting": "Italian ryegrass; 125 g ai/ha, scale 0 to 100", "value": 60},
      {"measurement": "Plant response rating, Ryegrass, Italian", "setting": "Italian ryegrass; [2]", "value": 70},
      {"measurement": "Plant response rating, Ryegrass, Italian", "setting": "Italian ryegrass; [1]", "value": 80},
      {"measurement": "Plant response rating, Quackgrass", "setting": "quackgrass; 62 g ai/ha, scale 0 to 100", "value": 10},
      {"measurement": "Plant response rating, Quackgrass", "setting": "quackgrass; 125 g ai/ha, scale 0 to 100", "value": 60},
      {"measurement": "Plant response rating, Quackgrass", "setting": "quackgrass; [2]", "value": 70},
      {"measurement": "Plant response rating, Quackgrass", "setting": "quackgrass; [1]", "value": 95},
      {"measurement": "Plant response rating, Bluegrass", "setting": "annual bluegrass; 62 g ai/ha, scale 0 to 100", "value": 10},
      {"measurement": "Plant response rating, Bluegrass", "setting": "annual bluegrass; 125 g ai/ha, scale 0 to 100", "value": 80},
      {"measurement": "Plant response rating, Bluegrass", "setting": "annual bluegrass; [2]", "value": 80},
      {"measurement": "Plant response rating, Bluegrass", "setting": "annual bluegrass; [1]", "value": 100},
      {"measurement": "Plant response rating, Canarygrass", "setting": "canarygrass; [7]", "value": 50},
      {"measurement": "Plant response rating, Canarygrass", "setting": "canarygrass; [3]", "value": 65},
      {"measurement": "Plant response rating, Canarygrass", "setting": "canarygrass; [4]", "value": 45},
      {"measurement": "Plant response rating, Canarygrass", "setting": "canarygrass; [5]", "value": 40},
      {"measurement": "Plant response rating, Johnsongrass", "setting": "johnsongrass; 62 g ai/ha, scale 0 to 100", "value": 10},
      {"measurement": "Plant response rating, Johnsongrass", "setting": "johnsongrass; 125 g ai/ha, scale 0 to 100", "value": 30},
      {"measurement": "Plant response rating, Johnsongrass", "setting": "johnsongrass; [2]", "value": 90},
      {"measurement": "Plant response rating, Johnsongrass", "setting": "johnsongrass; [1]", "value": 95},
      {"measurement": "Plant response rating, Beggarticks, Bip.", "setting": "bipinnate beggarticks; 125 g ai/ha, scale 0 to 100", "value": 10},
      {"measurement": "Plant response rating, Beggarticks, Bip.", "setting": "bipinnate beggarticks; [2]", "value": 80},
      {"measurement": "Plant response rating, Beggarticks, Bip.", "setting": "bipinnate beggarticks; [1]", "value": 100},
      {"measurement": "Plant response rating, Windgrass", "setting": "windgrass; [3]", "value": 65},
      {"measurement": "Plant response rating, Windgrass", "setting": "windgrass; [4]", "value": 55},
      {"measurement": "Plant response rating, Windgrass", "setting": "windgrass; [5]", "value": 35}
    ]}
  ]
}
